In patent publication US20240400997A1, “TRANSFORMED HUMAN HEPATIC STELLATE CELL LINE AND USE THEREOF” (KOREA RESEARCH INSTITUTE OF BIOSCIENCE AND BIOTECHNOLOGY, priority 2020, published 2024):
Read-outs that look alike come from different tables or passages of the source.

What was measured:
[1] = system: TGF-β1; test: K-HSC/HepaRG 1:1 in 4% hydrogel with TGF-β1 and inhibitor A, 18-day culture, liver fibrosis marker expression; format: cell-based, human; conditions: K-HSC/HepaRG 1:1, 4% hydrogel, 18 days
Procedure: Meanwhile, the K-HSC was encapsulated with the hepatic cell line HepaRG at a ratio of 1:1 in a 4% hydrogel and then 3D cultured, and the groups were divided into experimental groups to which TGF-β1, which is a fibrosis-inducing material, and inhibitor A thereof were added individually or simultaneously, and a control group to which TGF-β1 and inhibitor A were not added. The groups were cultured for 18 days, and then the cell network formation and expression differences of fibrosis markers in the liver analogs were confirmed.

[2] = system: primary human hepatic cells; test: K-HSC and primary human hepatic cells 1:1 in hydrogel or nanoparticle-hydrogel, TGF-β1 cycles, albumin; format: cell-based; conditions: 10 ng/mL TGF-β1, 3 cycles, 24-day culture, K-HSC with primary human hepatic cells
Procedure: The K-HSC prepared in Example 1 was encapsulated with primary human hepatic cells (PHHs, Corning, USA) at a ratio of 1:1 in 4.5% polyethylene glycol/hyaluronic acid/RGD hydrogel using photopolymerization as described in Example 4. The cells frozen with nitrogen were thawed using recovery media (ThermoFisher, USA) and centrifuged, and then the number of cells were measured, and the cells were encapsulated with the K-HSC in a hydrogel, and then cultured for one day in a primary human hepatocyte plating medium (ThermoFisher, USA) containing 10% bovine serum. The medium was converted to a dedicated serum-free medium for primary human hepatic cells (Corning, USA), after 5 days, TGF-β1 inducing fibrosis, was added for 24 hours at a concentration of 10 ng/mL, and then converted back to a serum-free medium to which the TGF-β1 was not added in the following day, 3 cycles were performed, and the appearance change of the hydrogel was observed after the 24-day culture, and albumin production ability and expression levels of fibrosis markers were measured by RT-PCR.

[3] = system: CYP3A4 enzyme
[4] = system: CYP3A4 enzyme; test: Liver injury simulation in 3D co-cultures with HepaRG: CYP3A4 enzyme activity and albumin production; conditions: hydrogels and NP-hydrogels, K-HSC or LX-2 with HepaRG 1:1

Compound	reactivity to TGF-β1 in expression of liver fibrosis markers [1]	albumin degrading ability in the presence of TGF-β1 compared to control groups [2]	CYP3A4 enzyme activity and function [3]	CYP3A4 enzyme activity and function [4]
transforming growth factor beta 1 [TGF-β1]	confirmed in all markers except smooth muscle actin alpha (α-SMA) and lysyl oxidase (LOX)	deterioration	CYP3A4 enzyme activity and functional decrease were simulated	
CN(Cc1cnc2nc(N)nc(N)c2n1)c1ccc(C(=O)N[C@@H](CCC(=O)O)C(=O)O)cc1 [MTX, methotrexate]				CYP3A4 enzyme activity and functional decrease were simulated
